# Results as given in US20060069132A1, “Azolecarboxamide herbicides” (priority 2004, published 2006).
# Legend:
# [1] = tested on: barnyardgrass; test: Test A pre-/postemergence herbicide test; assay type: in vivo, Echinochloa crus-galli
# How it was run: (§1)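 Both application timings were run together: directed soil spray over freshly planted seeds in sandy loam, and runoff spray onto 2–10 cm seedlings. Evaluation after ~10 days in greenhouse used a 0–100 visual scale versus untreated controls.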
# [2] = tested on: large crabgrass; test: Test A pre-/postemergence herbicide test; assay type: in vivo, Digitaria sanguinalis
# How it was run: as §1
# [3] = tested on: giant foxtail; test: Test A pre-/postemergence herbicide test; assay type: in vivo, Setaria faberi
# How it was run: as §1
# [4] = tested on: morningglory; test: Test A pre-/postemergence herbicide test; assay type: in vivo, Ipomoea spp.
# How it was run: as §1
# [5] = tested on: redroot pigweed; test: Test A pre-/postemergence herbicide test; assay type: in vivo, Amaranthus retroflexus
# How it was run: as §1
# [6] = tested on: velvetleaf; test: Test A pre-/postemergence herbicide test; assay type: in vivo, Abutilon theophrasti
# How it was run: as §1
# [7] = tested on: barnyardgrass; test: Test B pre-/postemergence herbicide test; assay type: in vivo, Echinochloa crus-galli; details: for Plant response rating, Barnyardgrass: preemergence; for Barnyardgrass plant response rating: postemergence, visual rating, scale 0 (no effect) to 100 (complete control)
# How it was run: (§2)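 Plants compared with untreated controls 13–15 days post-treatment and given a visual 0–100 injury score. Applications: preemergence to seeds; postemergence at 1- to 4-leaf (2–18 cm); paddy species flooded, 2-leaf stage. Vehicle non-phytotoxic, surfactant included.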
# [8] = tested on: Surinam grass; test: Test B pre-/postemergence herbicide test; assay type: in vivo, Urochloa decumbens; details: for Plant response rating, Surinam Grass: preemergence; for Surinam Grass plant response rating: postemergence, visual rating, scale 0 (no effect) to 100 (complete control)
# How it was run: (§3)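 Test chemicals in a non-phytotoxic solvent mixture with surfactant were applied preemergence to seeded species and postemergence to plants 2-18 cm tall (1- to 4-leaf stage); rice and barnyardgrass were also tested in a flooded paddy at the 2-leaf stage. Visual rating versus controls after 13-15 days in greenhouse, scale 0 (no effect) to 100 (complete control).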
# [9] = tested on: cocklebur; test: Test B pre-/postemergence herbicide test; assay type: in vivo, Xanthium strumarium; details: for Plant response rating, Cocklebur: preemergence; for Cocklebur plant response rating: postemergence, visual rating, scale 0 (no effect) to 100 (complete control)
# How it was run: as §2
# [10] = tested on: corn; test: Test B pre-/postemergence herbicide test; assay type: in vivo, Zea mays; details: for Plant response rating, Corn: preemergence; for Corn plant response rating: postemergence, visual rating, scale 0 (no effect) to 100 (complete control)
# How it was run: as §3
# [11] = tested on: large crabgrass; test: Test B pre-/postemergence herbicide test; assay type: in vivo, Digitaria sanguinalis; details: for Plant response rating, Crabgrass, Large: preemergence; for Crabgrass, Large plant response rating: postemergence, visual rating, scale 0 (no effect) to 100 (complete control)
# How it was run: as §3
# [12] = tested on: giant foxtail; test: Test B pre-/postemergence herbicide test; assay type: in vivo, Setaria faberi; details: for Plant response rating, Foxtail, Giant: preemergence; for Foxtail, Giant plant response rating: postemergence, visual rating, scale 0 (no effect) to 100 (complete control)
# How it was run: as §3
# [13] = tested on: lambsquarters; test: Test B pre-/postemergence herbicide test; assay type: in vivo, Chenopodium album; details: for Plant response rating, Lambsquarters: preemergence; for Lambsquarters plant response rating: postemergence, visual rating, scale 0 (no effect) to 100 (complete control)
# How it was run: as §3
# [14] = tested on: morningglory; test: Test B pre-/postemergence herbicide test; assay type: in vivo, Ipomoea coccinea; details: for Morningglory plant response rating: postemergence, visual rating, scale 0 (no effect) to 100 (complete control)
# How it was run: as §2
# [15] = tested on: pigweed; test: Test B pre-/postemergence herbicide test; assay type: in vivo, Amaranthus retroflexus; details: for Plant response rating, Pigweed: preemergence; for Pigweed plant response rating: postemergence, visual rating, scale 0 (no effect) to 100 (complete control)
# How it was run: as §3
# [16] = tested on: rice; test: Test B pre-/postemergence herbicide test; assay type: in vivo, Oryza sativa; details: 500 g ai/ha; visual rating 0-100, 0 no effect, 100 complete control; preemergence
# How it was run: as §3
# [17] = tested on: velvetleaf; test: Test B pre-/postemergence herbicide test; assay type: in vivo, Abutilon theophrasti; details: for Plant response rating, Velvetleaf: preemergence; for Velvetleaf plant response rating: postemergence, visual rating, scale 0 (no effect) to 100 (complete control)
# How it was run: as §3
# [18] = tested on: blackgrass; test: Test B postemergence herbicide test; assay type: in vivo, Alopecurus myosuroides; details: postemergence, visual rating, scale 0 (no effect) to 100 (complete control)
# How it was run: (§4)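 Formulated test chemicals went onto postemergence plants measuring 2 to 18 cm, at one to four leaves. For the paddy assay, species had reached two leaves. Scoring took place 13–15 days later by eye, relative to untreated plants, using 0 for no effect up to 100 for full control.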
# [19] = tested on: wheat; test: Test B postemergence herbicide test; assay type: in vivo, Triticum aestivum; set-up: key to Wheat plant response rating: 0 = no effect, 100 = complete control; details: postemergence, visual rating, scale 0 (no effect) to 100 (complete control)
# How it was run: (§5)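 After treating 2-leaf paddy plants or 2–18 cm postemergence plants (1 to 4 leaves) with formulated chemical, researchers kept them in a greenhouse for 13–15 days. Effects were judged visually versus controls: 0 indicates none, 100 total control.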
# [20] = tested on: wild oat; test: Test B postemergence herbicide test; assay type: in vivo, Avena fatua; details: postemergence, visual rating, scale 0 (no effect) to 100 (complete control)
# How it was run: as §5
# [21] = tested on: rice; test: Test B flooded paddy test; assay type: in vivo, Oryza sativa; details: 1000 g ai/ha, visual rating, scale 0 to 100 (0 no effect, 100 complete control), 13 to 15 days
# How it was run: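 Paddy species grown to the 2-leaf stage under flooding; blackgrass sprayed postemergence at 2–18 cm (1- to 4-leaf stage). Plants kept in a greenhouse for 13 to 15 days, then visually rated against controls on 0 (no effect) to 100 (complete control).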
# [22] = tested on: small flower umbrella sedge; test: Test B flooded paddy test; assay type: in vivo, Cyperus difformis; details: 1000 g ai/ha, visual rating, scale 0 to 100 (0 no effect, 100 complete control), 13 to 15 days
# How it was run: as §4
# [23] = tested on: ducksalad; test: Test B flooded paddy test; assay type: in vivo, Heteranthera limosa; details: 1000 g ai/ha, visual rating, scale 0 to 100 (0 no effect, 100 complete control), 13 to 15 days
# How it was run: as §4
# [24] = tested on: barnyardgrass; test: Test B flooded paddy test; assay type: in vivo, Echinochloa crus-galli; details: 1000 g ai/ha, visual rating, scale 0 to 100 (0 no effect, 100 complete control), 13 to 15 days
# How it was run: as §4
# [25] = Postemergence, 250 g ai/ha, 0 to 100 scale, 0 no effect, 100 complete control
# [26] = Postemergence, 1000 g ai/ha, 0 to 100 scale, 0 no effect, 100 complete control
# [27] = Preemergence, 1000 g ai/ha, visual rating, 0 to 100 scale (0 no effect, 100 complete control)
# [28] = preemergence, 250 g ai/ha, visual injury, 0 to 100 scale (0 no effect, 100 complete control)
# [29] = 500 g ai/ha, visual rating 0-100, 0 no effect, 100 complete control
# [30] = 125 g ai/ha, 0 to 100 scale, 0 is no effect, 100 is complete control
compound,measurement,setting,value
CCn1nc(C(C)(C)C)cc1C(=O)Nc1cccc([S+]([O-])C(F)(F)F)c1 (centres unmarked) [Compound 135],Barnyardgrass plant response rating,[1]; [25],30
same,"Plant response rating, Barnyardgrass",[1]; [26],50
same,Barnyardgrass plant response rating,[1]; [27],65
same,Barnyardgrass plant response rating,[1]; [28],35
same,"Crabgrass, Large plant response rating",[2]; [25],20
same,"Plant response rating, Crabgrass, Large",[2]; [26],30
same,"Crabgrass, Large plant response rating",[2]; [27],90
same,"Crabgrass, Large plant response rating",[2]; [28],40
same,"Foxtail, Giant plant response rating",[3]; [25],20
same,"Plant response rating, Foxtail, Giant",[3]; [26],30
same,"Foxtail, Giant plant response rating",[3]; [27],50
same,"Foxtail, Giant plant response rating",[3]; [28],10
same,Morningglory plant response rating,[4]; [25],10
same,"Plant response rating, Morningglory",[4]; [26],10
same,Morningglory plant response rating,[4]; [27],25
same,Morningglory plant response rating,[4]; [28],0
same,Pigweed plant response rating,[5]; [25],80
same,"Plant response rating, Pigweed",[5]; [26],85
same,Pigweed plant response rating,[5]; [27],85
same,Pigweed plant response rating,[5]; [28],55
same,Velvetleaf plant response rating,[6]; [25],15
same,"Plant response rating, Velvetleaf",[6]; [26],25
same,Velvetleaf plant response rating,[6]; [27],50
same,Velvetleaf plant response rating,[6]; [28],5
same,"Plant response rating, Barnyardgrass",[7]; [29],50
same,Barnyardgrass plant response rating,[7]; 125 g ai/ha,20
same,Barnyardgrass plant response rating,[7]; 500 g ai/ha,40
same,"Plant response rating, Barnyardgrass",[7]; [30],40
same,"Plant response rating, Surinam Grass",[8]; [29],30
same,Surinam Grass plant response rating,[8]; 125 g ai/ha,30
same,Surinam Grass plant response rating,[8]; 500 g ai/ha,40
same,"Plant response rating, Surinam Grass",[8]; [30],10
same,"Plant response rating, Cocklebur",[9]; [29],0
same,Cocklebur plant response rating,[9]; 125 g ai/ha,40
same,Cocklebur plant response rating,[9]; 500 g ai/ha,90
same,"Plant response rating, Cocklebur",[9]; [30],0
same,"Plant response rating, Corn",[10]; [29],0
same,Corn plant response rating,[10]; 125 g ai/ha,20
same,Corn plant response rating,[10]; 500 g ai/ha,30
same,"Plant response rating, Corn",[10]; [30],0
same,"Plant response rating, Crabgrass, Large",[11]; [29],90
same,"Crabgrass, Large plant response rating",[11]; 125 g ai/ha,20
same,"Crabgrass, Large plant response rating",[11]; 500 g ai/ha,30
same,"Plant response rating, Crabgrass, Large",[11]; [30],50
same,"Plant response rating, Foxtail, Giant",[12]; [29],20
same,"Foxtail, Giant plant response rating",[12]; 125 g ai/ha,30
same,"Foxtail, Giant plant response rating",[12]; 500 g ai/ha,40
same,"Plant response rating, Foxtail, Giant",[12]; [30],10
same,"Plant response rating, Lambsquarters",[13]; [29],100
same,Lambsquarters plant response rating,[13]; 125 g ai/ha,70
same,Lambsquarters plant response rating,[13]; 500 g ai/ha,80
same,"Plant response rating, Lambsquarters",[13]; [30],30
same,Morningglory plant response rating,[14]; 125 g ai/ha,30
same,Morningglory plant response rating,[14]; 500 g ai/ha,50
same,"Plant response rating, Morningglory","[14]; preemergence, 125 g ai/ha, 0 to 100 scale, 0 is no effect, 100 is complete control",10
same,"Plant response rating, Pigweed",[15]; [29],100
same,Pigweed plant response rating,[15]; 125 g ai/ha,80
same,Pigweed plant response rating,[15]; 500 g ai/ha,90
same,"Plant response rating, Pigweed",[15]; [30],60
same,"Plant response rating, Rice",[16],30
same,"Plant response rating, Velvetleaf",[17]; [29],50
same,Velvetleaf plant response rating,[17]; 125 g ai/ha,20
same,Velvetleaf plant response rating,[17]; 500 g ai/ha,30
same,"Plant response rating, Velvetleaf",[17]; [30],30
same,Blackgrass plant response rating,[18]; 125 g ai/ha,0
same,Blackgrass plant response rating,[18]; 500 g ai/ha,0
same,Wheat plant response rating,[19]; 125 g ai/ha,20
same,Wheat plant response rating,[19]; 500 g ai/ha,20
same,"Oat, Wild plant response rating",[20]; 125 g ai/ha,20
same,"Oat, Wild plant response rating",[20]; 500 g ai/ha,20
same,Rice plant response rating,[21],60
same,"Sedge, Umbrella plant response rating",[22],70
same,Ducksalad plant response rating,[23],80
same,Barnyardgrass plant response rating,[24],60
